{"source": "ChEMBL document CHEMBL6134887", "about": "“Linker and Head-Group Exploration of Anti-MRSA Triaromatic Pleuromutilins” (J Med Chem, 2025)", "key": {"Staphylococcus aureus [1]": {"tested_on": "Staphylococcus aureus", "assay": "Antibacterial activity against methicillin resistant Staphylococcus aureus USA300 FPR3757 assessed as inhibition of bacterial growth incubated for 20 to 24 hrs by microbroth serial dilution method", "format": "functional", "settings": "time 20-24 hrs, read-out: MIC100"}, "Streptococcus pneumoniae": {"tested_on": "Streptococcus pneumoniae", "assay": "Antibacterial activity against Streptococcus pneumoniae assessed as inhibition of bacterial growth incubated for 20 to 24 hrs by microbroth serial dilution method", "format": "functional", "settings": "time 20-24 hrs, read-out: MIC100"}, "Enterococcus faecalis": {"tested_on": "Enterococcus faecalis", "assay": "Antibacterial activity against Enterococcus faecalis assessed as inhibition of bacterial growth incubated for 20 to 24 hrs by microbroth serial dilution method", "format": "functional", "settings": "time 20-24 hrs, read-out: MIC100"}, "Enterococcus faecium [2]": {"tested_on": "Enterococcus faecium", "assay": "Antibacterial activity against vancomycin, ampicillin and ciprofloxacin resistant Enterococcus faecium clinical isolate 1 assessed as inhibition of bacterial growth incubated for 20 to 24 hrs by microbroth serial dilution method", "format": "functional", "settings": "time 20-24 hrs, read-out: MIC100"}, "Enterococcus faecium [3]": {"tested_on": "Enterococcus faecium", "assay": "Antibacterial activity against vancomycin, ampicillin and ciprofloxacin resistant Enterococcus faecium clinical isolate 5 assessed as inhibition of bacterial growth incubated for 20 to 24 hrs by microbroth serial dilution method", "format": "functional", "settings": "time 20-24 hrs, read-out: MIC100"}, "[4]": {"assay": "Metabolic stability in mouse liver microsomes assessed as half-life at 1 uM measured up to 60 mins by LC-MS/MS analysis", "format": "ADME, Microsome"}, "[5]": {"assay": "Metabolic stability in mouse liver assessed as intrinsic clearance at 1 uM measured up to 60 mins by LC-MS/MS analysis", "format": "ADME, tissue-based", "settings": "read-out: CLH"}, "[6]": {"assay": "Metabolic stability in human liver microsomes assessed as half-life at 1 uM measured up to 30 mins by LC-MS/MS analysis", "format": "ADME, Microsome"}, "[7]": {"assay": "Metabolic stability in human liver assessed as intrinsic clearance at 1 uM measured up to 30 mins by LC-MS/MS analysis", "format": "ADME, tissue-based", "settings": "read-out: CLH"}, "Staphylococcus aureus [8]": {"tested_on": "Staphylococcus aureus", "assay": "Antibacterial activity against methicillin susceptible Staphylococcus aureus ATCC 25923 assessed as inhibition of bacterial growth incubated for 20 to 24 hrs by microbroth serial dilution method", "format": "functional", "settings": "time 20-24 hrs, read-out: MIC100"}, "Staphylococcus aureus [9]": {"tested_on": "Staphylococcus aureus", "assay": "Antibacterial activity against methicillin susceptible Staphylococcus aureus ATCC 29213 assessed as inhibition of bacterial growth incubated for 20 to 24 hrs by microbroth serial dilution method", "format": "functional", "settings": "time 20-24 hrs, read-out: MIC100"}}}
{"smiles": "C=C[C@]1(C)C[C@@H](OC(=O)Cn2cc(-c3cccc(NC(=O)c4ccc(OC)cc4)c3)nn2)[C@]2(C)[C@H](C)CC[C@]3(CCC(=O)[C@H]32)[C@@H](C)[C@@H]1O", "values": [{"measurement": "MIC", "setting": "Staphylococcus aureus [1]", "value": 0.12, "unit": "µg/mL"}, {"measurement": "MIC", "setting": "Streptococcus pneumoniae", "value": 0.25, "unit": "µg/mL"}, {"measurement": "MIC", "setting": "Enterococcus faecalis", "value": 0.5, "unit": "µg/mL"}, {"measurement": "MIC", "setting": "Enterococcus faecium [2]", "value": 0.12, "unit": "µg/mL"}, {"measurement": "MIC", "setting": "Enterococcus faecium [3]", "value": 0.25, "unit": "µg/mL"}]}
{"smiles": "C=C[C@]1(C)C[C@@H](OC(=O)Cn2cc(-c3ccc(CNc4cc(N)ncn4)cc3)nn2)[C@]2(C)[C@H](C)CC[C@]3(CCC(=O)[C@H]32)[C@@H](C)[C@@H]1O", "values": [{"measurement": "MIC", "setting": "Staphylococcus aureus [1]", "value": 0.03, "unit": "µg/mL"}, {"measurement": "half-life at 1 µM", "setting": "[4]", "value": 0.55, "unit": "min"}, {"measurement": "CLint scaled at 1 µM", "setting": "[5]", "value": "> 600", "unit": "L/h/kg"}, {"measurement": "half-life at 1 µM", "setting": "[6]", "value": 1.3, "unit": "min"}, {"measurement": "CLint scaled at 1 µM", "setting": "[7]", "value": 289, "unit": "L/h/kg"}]}
{"smiles": "C=C[C@]1(C)C[C@@H](OC(=O)Cn2cc(-c3cncc(C(=O)Nc4ncnc5[nH]cnc45)c3)nn2)[C@]2(C)[C@H](C)CC[C@]3(CCC(=O)[C@H]32)[C@@H](C)[C@@H]1O", "values": [{"measurement": "MIC", "setting": "Staphylococcus aureus [1]", "value": 0.06, "unit": "µg/mL"}, {"measurement": "half-life at 1 µM", "setting": "[4]", "value": 1.3, "unit": "min"}, {"measurement": "CLint scaled at 1 µM", "setting": "[5]", "value": 246, "unit": "L/h/kg"}, {"measurement": "half-life at 1 µM", "setting": "[6]", "value": 3.6, "unit": "min"}, {"measurement": "CLint scaled at 1 µM", "setting": "[7]", "value": 104, "unit": "L/h/kg"}]}
{"smiles": "C=C[C@]1(C)C[C@@H](OC(=O)Cn2cc(-c3cncc(NC(=O)c4ccc(OC)nc4)c3)nn2)[C@]2(C)[C@H](C)CC[C@]3(CCC(=O)[C@H]32)[C@@H](C)[C@@H]1O", "values": [{"measurement": "MIC", "setting": "Staphylococcus aureus [1]", "value": 0.12, "unit": "µg/mL"}, {"measurement": "half-life at 1 µM", "setting": "[4]", "value": 0.57, "unit": "min"}, {"measurement": "CLint scaled at 1 µM", "setting": "[5]", "value": 574, "unit": "L/h/kg"}, {"measurement": "half-life at 1 µM", "setting": "[6]", "value": 2.4, "unit": "min"}, {"measurement": "CLint scaled at 1 µM", "setting": "[7]", "value": 154, "unit": "L/h/kg"}]}
{"smiles": "C=C[C@]1(C)C[C@@H](OC(=O)Cn2cc(-c3cncc(C(=O)Nc4ccc(N)nc4)c3)nn2)[C@]2(C)[C@H](C)CC[C@]3(CCC(=O)[C@H]32)[C@@H](C)[C@@H]1O", "values": [{"measurement": "MIC", "setting": "Staphylococcus aureus [1]", "value": 0.25, "unit": "µg/mL"}, {"measurement": "MIC", "setting": "Streptococcus pneumoniae", "value": 1, "unit": "µg/mL"}, {"measurement": "MIC", "setting": "Enterococcus faecalis", "value": 1, "unit": "µg/mL"}, {"measurement": "MIC", "setting": "Enterococcus faecium [2]", "value": 1, "unit": "µg/mL"}, {"measurement": "MIC", "setting": "Enterococcus faecium [3]", "value": 1, "unit": "µg/mL"}, {"measurement": "half-life at 1 µM", "setting": "[4]", "value": 0.6, "unit": "min"}, {"measurement": "CLint scaled at 1 µM", "setting": "[5]", "value": 546, "unit": "L/h/kg"}]}
{"smiles": "C=C[C@]1(C)C[C@@H](OC(=O)Cn2cc(-c3cncc(C(O)c4ccc5c(N)ncnn45)c3)nn2)[C@]2(C)[C@H](C)CC[C@]3(CCC(=O)[C@H]32)[C@@H](C)[C@@H]1O", "note": "(stereo not given in full)", "values": [{"measurement": "MIC", "setting": "Staphylococcus aureus [1]", "value": 0.25, "unit": "µg/mL"}, {"measurement": "half-life at 1 µM", "setting": "[4]", "value": 2.5, "unit": "min"}, {"measurement": "CLint scaled at 1 µM", "setting": "[5]", "value": 131, "unit": "L/h/kg"}, {"measurement": "half-life at 1 µM", "setting": "[6]", "value": 5.4, "unit": "min"}, {"measurement": "CLint scaled at 1 µM", "setting": "[7]", "value": 68.8, "unit": "L/h/kg"}]}
{"smiles": "C=C[C@]1(C)C[C@@H](OC(=O)Cn2cc(-c3ccc(C(O)c4ccc5c(N)ncnn45)nc3)nn2)[C@]2(C)[C@H](C)CC[C@]3(CCC(=O)[C@H]32)[C@@H](C)[C@@H]1O", "note": "(stereo not given in full)", "values": [{"measurement": "MIC", "setting": "Staphylococcus aureus [1]", "value": 0.03, "unit": "µg/mL"}, {"measurement": "half-life at 1 µM", "setting": "[4]", "value": 0.74, "unit": "min"}, {"measurement": "CLint scaled at 1 µM", "setting": "[5]", "value": 447, "unit": "L/h/kg"}, {"measurement": "half-life at 1 µM", "setting": "[6]", "value": 1.3, "unit": "min"}, {"measurement": "CLint scaled at 1 µM", "setting": "[7]", "value": 284, "unit": "L/h/kg"}]}
{"smiles": "C=C[C@]1(C)C[C@@H](OC(=O)Cn2cc(-c3ccc(C(O)c4ccc5c(N)ncnn45)cn3)nn2)[C@]2(C)[C@H](C)CC[C@]3(CCC(=O)[C@H]32)[C@@H](C)[C@@H]1O", "note": "(stereo not given in full)", "values": [{"measurement": "MIC", "setting": "Staphylococcus aureus [1]", "value": 0.03, "unit": "µg/mL"}, {"measurement": "half-life at 1 µM", "setting": "[4]", "value": 0.66, "unit": "min"}, {"measurement": "CLint scaled at 1 µM", "setting": "[5]", "value": 500, "unit": "L/h/kg"}, {"measurement": "half-life at 1 µM", "setting": "[6]", "value": 1.4, "unit": "min"}, {"measurement": "CLint scaled at 1 µM", "setting": "[7]", "value": 275, "unit": "L/h/kg"}]}
{"smiles": "C=C[C@]1(C)C[C@@H](OC(=O)CS[C@@H]2CC[C@@H](N)C[C@H]2O)[C@]2(C)[C@H](C)CC[C@]3(CCC(=O)[C@H]32)[C@@H](C)[C@@H]1O", "note": "[LEFAMULIN]", "values": [{"measurement": "MIC", "setting": "Staphylococcus aureus [8]", "value": 0.12, "unit": "µg/mL"}, {"measurement": "MIC", "setting": "Staphylococcus aureus [9]", "value": 0.25, "unit": "µg/mL"}, {"measurement": "half-life at 1 µM", "setting": "[4]", "value": 11.5, "unit": "min"}, {"measurement": "CLint scaled at 1 µM", "setting": "[5]", "value": 28.7, "unit": "L/h/kg"}]}
{"smiles": "C=C[C@]1(C)C[C@@H](OC(=O)Cn2cc(-c3ccc(Cn4ccc5c(N)ncnc54)c(OC)c3)nn2)[C@]2(C)[C@H](C)CC[C@]3(CCC(=O)[C@H]32)[C@@H](C)[C@@H]1O", "values": [{"measurement": "MIC", "setting": "Staphylococcus aureus [1]", "value": 0.12, "unit": "µg/mL"}, {"measurement": "half-life at 1 µM", "setting": "[4]", "value": 0.68, "unit": "min"}, {"measurement": "CLint scaled at 1 µM", "setting": "[5]", "value": 486, "unit": "L/h/kg"}, {"measurement": "half-life at 1 µM", "setting": "[6]", "value": 1.2, "unit": "min"}, {"measurement": "CLint scaled at 1 µM", "setting": "[7]", "value": 310, "unit": "L/h/kg"}]}
{"smiles": "C=C[C@]1(C)C[C@@H](OC(=O)Cn2cc(-c3cncc(NC(=O)c4ccc(OC)cc4)c3)nn2)[C@]2(C)[C@H](C)CC[C@]3(CCC(=O)[C@H]32)[C@@H](C)[C@@H]1O", "values": [{"measurement": "MIC", "setting": "Staphylococcus aureus [1]", "value": 0.06, "unit": "µg/mL"}, {"measurement": "half-life at 1 µM", "setting": "[4]", "value": 0.56, "unit": "min"}, {"measurement": "CLint scaled at 1 µM", "setting": "[5]", "value": 591, "unit": "L/h/kg"}, {"measurement": "half-life at 1 µM", "setting": "[6]", "value": 1.7, "unit": "min"}, {"measurement": "CLint scaled at 1 µM", "setting": "[7]", "value": 219, "unit": "L/h/kg"}]}
{"smiles": "C=C[C@]1(C)C[C@@H](OC(=O)Cn2cc(-c3ccc(Cn4cnc5c(N)ncnc54)nc3)nn2)[C@]2(C)[C@H](C)CC[C@]3(CCC(=O)[C@H]32)[C@@H](C)[C@@H]1O", "values": [{"measurement": "MIC", "setting": "Staphylococcus aureus [8]", "value": 0.06, "unit": "µg/mL"}, {"measurement": "MIC", "setting": "Staphylococcus aureus [9]", "value": 0.06, "unit": "µg/mL"}, {"measurement": "half-life at 1 µM", "setting": "[4]", "value": 0.58, "unit": "min"}, {"measurement": "CLint scaled at 1 µM", "setting": "[5]", "value": 571, "unit": "L/h/kg"}]}
